ChEMBL document CHEMBL1201862, “PubChem BioAssay data set” (2004)
Active and inactive are the calls of the source.

How the values were obtained:
[1] = molecular target: T1, DNA repair and recombination protein RAD54-like (Homo sapiens, UniProt Q92698); assay: inhibitors of human RAD54 branch migration, confirmation, biochemical, fluorescence, cherry-picked samples, dose series (AID 651657); assay type: functional
T1 sequence (Q92698 whole entry): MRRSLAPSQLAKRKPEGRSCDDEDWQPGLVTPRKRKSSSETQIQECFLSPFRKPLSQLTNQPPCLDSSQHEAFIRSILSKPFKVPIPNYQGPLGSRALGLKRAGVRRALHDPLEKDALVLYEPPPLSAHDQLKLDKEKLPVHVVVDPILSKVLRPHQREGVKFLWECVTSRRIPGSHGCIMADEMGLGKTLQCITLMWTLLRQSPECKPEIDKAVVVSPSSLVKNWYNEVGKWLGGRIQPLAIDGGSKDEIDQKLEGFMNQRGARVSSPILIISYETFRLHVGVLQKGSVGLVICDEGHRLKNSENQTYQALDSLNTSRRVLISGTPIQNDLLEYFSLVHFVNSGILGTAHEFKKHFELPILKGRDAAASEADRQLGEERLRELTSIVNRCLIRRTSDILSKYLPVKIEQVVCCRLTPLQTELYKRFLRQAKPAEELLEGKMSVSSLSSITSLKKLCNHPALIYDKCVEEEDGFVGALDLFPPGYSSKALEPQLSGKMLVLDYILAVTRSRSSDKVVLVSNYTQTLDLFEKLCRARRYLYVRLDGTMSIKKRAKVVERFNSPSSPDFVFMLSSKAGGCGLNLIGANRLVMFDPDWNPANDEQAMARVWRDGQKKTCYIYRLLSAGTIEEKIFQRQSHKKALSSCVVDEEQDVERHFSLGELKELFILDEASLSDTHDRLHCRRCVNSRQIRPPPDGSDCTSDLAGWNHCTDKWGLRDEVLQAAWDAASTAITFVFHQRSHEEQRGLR

[2] = molecular target: T2, DNA repair protein RAD52 homolog (Homo sapiens, UniProt P43351); assay type: functional, biochemical
T2 sequence (P43351 whole entry): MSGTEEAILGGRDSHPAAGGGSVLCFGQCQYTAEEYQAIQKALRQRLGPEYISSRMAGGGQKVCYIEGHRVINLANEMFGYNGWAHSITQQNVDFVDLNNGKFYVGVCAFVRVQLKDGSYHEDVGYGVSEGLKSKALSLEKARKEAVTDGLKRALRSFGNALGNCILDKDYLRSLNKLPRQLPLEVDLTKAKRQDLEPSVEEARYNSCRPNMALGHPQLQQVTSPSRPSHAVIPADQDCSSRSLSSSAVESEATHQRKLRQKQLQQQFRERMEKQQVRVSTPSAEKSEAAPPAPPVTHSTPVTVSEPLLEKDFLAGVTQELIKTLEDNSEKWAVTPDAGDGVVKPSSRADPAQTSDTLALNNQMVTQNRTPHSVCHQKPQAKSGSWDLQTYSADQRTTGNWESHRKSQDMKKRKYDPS

[3] = P. falciparum late gametocyte killing, dose response, luminescence (AID 1117278); assay type: functional, cell-based;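 also: gametocytes exposed to compound for 24 hours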
[4] = Jurkat T cell cytotoxicity, dose response, cytotoxicity control for P. falciparum gametocyte viability project, luminescence (AID 1117277); assay type: functional, cell-based;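 also: potency reflects loss of cellular ATP meaning fewer viable cells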
[5] = human group III sPLA2 inhibitors, dose response, biochemical, QFRET, IC50 (AID 743457);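 also: green fluorescence rise as the enzyme cleaves BODIPY PC-A2 in liposomes; potency for inhibition of the enzyme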
[6] = molecular target: Mitogen-activated protein kinase 10 (Homo sapiens, UniProt P53779); assay: Dose response biochemical screening assay for inhibitors of c-Jun N-Terminal Kinase 3 (JNK3). [Related pubchem assays: 746 ]
Sequence of Mitogen-activated protein kinase 10 (P53779 whole entry, the tested form may be a part): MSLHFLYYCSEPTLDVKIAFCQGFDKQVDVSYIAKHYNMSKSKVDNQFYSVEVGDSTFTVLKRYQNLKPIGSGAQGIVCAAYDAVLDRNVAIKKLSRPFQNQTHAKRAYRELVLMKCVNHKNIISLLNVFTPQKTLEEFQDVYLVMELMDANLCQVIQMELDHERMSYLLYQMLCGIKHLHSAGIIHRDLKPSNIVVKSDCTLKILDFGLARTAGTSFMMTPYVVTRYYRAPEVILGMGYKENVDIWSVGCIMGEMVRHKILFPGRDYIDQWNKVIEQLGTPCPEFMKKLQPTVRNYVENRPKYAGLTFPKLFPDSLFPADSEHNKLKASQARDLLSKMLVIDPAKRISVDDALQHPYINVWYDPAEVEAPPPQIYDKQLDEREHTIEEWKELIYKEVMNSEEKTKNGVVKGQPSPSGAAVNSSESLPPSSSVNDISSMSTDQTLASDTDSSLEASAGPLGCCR

[7] = inhibitors of HIV Env-driven cell fusion, dose response, cherry-pick (AID 652057); assay type: functional, cell-based
[8] = CEM21 lymphoblast cell cytotoxicity, dose response, cytotoxicity control for viral fusion inhibitor project, CellTiter-Glo luminescence, cherry-picked (AID 652042); assay type: functional, cell-based;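 also: potency for signal decrease meaning cytotoxicity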
[9] = ZM109 Env clade C HIV-1 fusion inhibitors, dose response, HeLa effector, CEM target cells, luciferase, cherry-pick (AID 652058); assay type: functional, cell-based
[10] = off-target signal loss in HeLa-CEM21 co-culture – HeLa F-luc CTL cells, cherry-picked, counter-screen for HIV-1 Env fusion inhibitor project, dose response (AID 652040); assay type: functional, cell-based;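 also: potency for signal decrease marking cytotoxic or nonspecific inhibition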
[11] = inhibitors of clade B AD8 Env fusion, dose response, cell-based, cherry-pick (AID 652062); assay type: functional;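 also: luciferase signal from cell-cell fusion driven by HIV-1 clade B AD8 Env; potency is for inhibitors of fusion seen as a drop in luminescence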
Prothrombin = Prothrombin (Homo sapiens, UniProt P00734); assay: Thrombin 1536 HTS Dose Response Confirmation. [Related pubchem assays: 1046 (Thrombin 1536 HTS; hits were confirmed in this assay)]; assay type: functional
[12] = cytotoxicity toward NIH3T3 fibroblasts, dose response, counter-screen, cell-based, ATP luminescence, mouse fibroblasts (AID 2010); assay type: functional;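 also: cells exposed to compound for about 90 hours before reading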
[13] = inhibitors of SNCA 5'UTR-driven reporter translation, confirmation, H4 neuroglioma cells, luminescence (AID 1988); assay type: functional, cell-based
[14] = HEp-2 cell cytotoxicity, dose response, cytotoxicity control for RSV inhibitor project, HTS (AID 2410); assay type: functional; details: human respiratory syncytial virus
[15] = inhibitors of firefly luciferase expression or activity, dose response, H4 neuroglioma cells, luminescence (AID 1990); assay type: functional, cell-based
[16] = Luminescence Cell-Based Dose Response HTS to Identify Inhibitors of 5'UTR Stem-Loop Driven Prion Protein mRNA Translation in H4 Neuroglioblastoma Cells. [Related pubchem assays: 1827 (Project Summary), 1813 (Primary HTS)]; assay type: functional
[17] = inhibitors of intracellular T. cruzi replication, confirmation, NIH3T3 host cells, beta-gal luminescence (AID 2044); assay type: functional, cell-based;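 also: intracellular parasites grown in NIH/3T3 mouse fibroblasts as host cells; luminescent beta-galactosidase reporter signal from transgenic T. cruzi replicating inside host cells; inhibitors lower the luminescence signal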
cells [18] = assay type: functional, cell-based
cells [19] = assay type: functional, cell-based; remark: listed apart in the source

For Cc1cccc(-c2nc(NCCCN(C)C)c3ccccc3n2)c1, the AC50 [1] was 21.4 µM (active) and the AC50 [2] was 9.69 µM (active).
In the case of O=C(NC(Cc1ccc(O)cc1)C(=O)O)c1ccco1 (stereo unspecified), the IC50 [3] is reported as > 109 µM (inactive) and the IC50 [4] is reported as > 83.3 µM (inactive).
For Cc1cc(C)c2sc(NNC(=O)C3COc4ccccc4O3)nc2c1 (stereo unspecified), the IC50 [5] was 26.2 µM (inactive).
In the case of CCOc1ccccc1NC(=O)COc1cccc(-n2cnnn2)c1, the IC50 [6] is reported as 69.2 µM (not active).
In the case of COc1ccc(CCC(C)NCc2ccc(Cl)c(Cl)c2)cc1 (stereo unspecified), the AC50 [7] is reported as 5.33 µM (active), the AC50 [8] is reported as 59.6 µM (active) and the AC50 [9] is reported as 7.63 µM (active). For the same compound, the AC50 [10] was 8.87 µM (active) and the AC50 [11] was 6.23 µM (active).
For COC(=O)c1ccccc1NC(=O)COC(=O)c1ccco1, the IC50 [6] was 56.7 µM (not active).
With O=C(c1ccccc1)n1nc(-c2ccccc2)nc1NCc1ccco1 the IC50 (Prothrombin) was 1.72 µM (active).
For CC(C)(C)C(=O)N1CCN(c2ccc(Cl)cc2[N+](=O)[O-])CC1, the IC50 [3] was > 109 µM (inactive) and the IC50 [4] was > 83.3 µM (inactive).
In the case of FC(F)(F)c1cnc(NN=C(S)Nc2cccnc2)c(Cl)c1, the IC50 [5] is reported as > 122 µM (inactive).
For CCc1cccc2c1Sc1ccccc1CC2N1CCNCC1 (stereo unspecified), the EC50 [12] was 9.15 µM (active), the EC50 [13] was > 120 µM (not active) and the AC50 [2] was 18 µM (active). For the same compound, the CC50 [14] was 13 µM (active), the EC50 [15] was > 120 µM (not active) and the EC50 [16] was > 120 µM (not active). The EC50 [17] was 3.99 µM (active).
For CC(C)Oc1ccc(C2CC(=O)N(c3cccc(C(=O)O)c3)C2=O)cc1 (stereo unspecified), the IC50 [3] was > 109 µM (inactive) and the IC50 [4] was > 83.3 µM (inactive).
In the case of COc1ccc(COC(=O)C2=C(C)NC(=O)NC2c2ccc(O)c(OC)c2)cc1 (stereo unspecified), the IC50 [6] is reported as 33.8 µM (not active).
With COc1ccc(-n2cc(-c3ccccc3)nc2S)cc1 the IC50 [5] was > 122 µM (inactive).
With CCC(C)NCCOc1ccc(C)cc1[N+](=O)[O-] (stereo unspecified) the EC50 (cells [18]) was > 350 µM (not active), the IC50 (Prothrombin) was > 50 µM (not active) and the EC50 (cells [19]) was > 350 µM (not active).
With c1cc2cc(CNc3nc(NCC4CC4)nc4ccsc34)ccc2o1 the AC50 [7] was 4.73 µM (active), the AC50 [8] was 35.9 µM (active) and the AC50 [9] was 33.1 µM (active). The AC50 [10] was 8.05 µM (active) and the AC50 [11] was 22.5 µM (active).
With Oc1ccc2c3c1O[C@H]1c4[nH]c5c(c4CC4(O)C(C2)N(CC2CC2)CCC314)CC1(O)[C@H]2Cc3ccc(O)c4c3[C@@]1(CCN2CC1CC1)C5O4 (stereo partly specified) the AC50 [2] was 11.1 µM (active).
